Earlier results in publication PMC10973013, “Translational Potential of a Contrast Agent for FGS Applications in pNETs” (Molecular Imaging and Biology, 2024).

System: lesions in ovarian cancer patients
Details: cytoreductive surgery, randomized phase 3
Description: The critical need for accurate tumor detection during oncologic surgery has led to the development of fluorescent contrast agents that target cancerous tissues. This technique, known as fluorescence-guided surgery (FGS), typically involves systemic administration of a fluorescent compound that contains a tumor-targeting moiety and is imaged in the near-infrared spectral range in order to maximize image contrast and diagnostic accuracy. In 2021, the folic acid analog OTL-38 (CYTALUX®) became the first clinically approved FGS agent to target tumors via an active, receptor-mediated process. ...

## CC1(C)C(/C=C/C2=C(Oc3ccc(C[C@H](NC(=O)c4ccc(NCc5cnc6nc(N)[nH]c(=O)c6n5)cc4)C(=O)[O-])cc3)C(=C/C=C3\N(CCCCS(=O)(=O)[O-])c4ccc(S(=O)(=O)[O-])cc4C3(C)C)/CCC2)=[N+](CCCCS(=O)(=O)[O-])c2ccc(S(=O)(=O)[O-])cc21.[H+].[H+].[H+].[H+] [OTL-38]
  identification of lesions with FGS versus standard-of-care methods: more effectively identified with FGS than with standard-of-care methods
